Assay [1] is filed under the species Homo sapiens. Description: Activity expressed by taste potency (taste intensity relative to sucrose on a mole/mole basis). It counts as functional.
Assay [2] is filed under the species Homo sapiens. Description: Taste quality. It counts as functional.
Assay [3] in a line: Evaluated for taste quality, NS means not sweet.
The nature of assay [4]: The activity was expressed by the logarithm of the taste potency as measure of taste intensity relative to that of sucrose on a mole/mole basis; NI means not isolated.
Assay [5] can be described thus: The activity was expressed by the logarithm of the taste potency as measure of taste intensity relative to that of sucrose on a mole/mole basis; I means insoluble.
Assay [6] in a line: Evaluated for taste quality,.
The nature of assay [7]: The activity was expressed by the logarithm of the taste potency as measure of taste intensity relative to that of sucrose on a mole/mole basis;T = tasteless.

With `COCC1CC=C(/C=N/O)CC1` (centres undefined), in assay [1], the “Log A” value came out at 1.72. This compound registered a Log sweet/bitter in assay [2] of 0.38.

Turning to `C=C(C)/C=N/O`, the “Log A” value in assay [1] is reported as 0.9. For `COCC(C)(OC)C1CC=C(/C=N/O)CC1` (centres undefined), in assay [1], the “Log A” value stood at 1.7. Regarding `C=C(C)C1CC=C(/C=N/O)CC1` (centres undefined), the “Log A” value in assay [1] is on record as 2.57. The compound also had a Log sweet/bitter in assay [2] of 0.38. Regarding `CC(C)(OCC(=O)O)C1CC=C(/C=N/O)CC1` (centres undefined) [listing 1 of 2 here], in assay [1], the “Log A” value is on record as 1.98. Also, the Log sweet/bitter in assay [2] is recorded as 0.15. Turning to `CC1=CCC(/C=N/O)=CC1`, the “Log A” value in assay [1] is 2.7. This compound had a Log sweet/bitter in assay [2] of 1.42. As for `COc1ccc([N+](=O)[O-])cc1N`, in assay [1], the “Log A” value was found to be 2.21.

As to `COC(C)C1CCC=C(/C=N/O)C1` (centres undefined), in assay [1], the “Log A” value came to 1.45. This compound also returned a Log sweet/bitter in assay [2] of -1.4. With `Nc1cc([N+](=O)[O-])ccc1I`, in assay [1], the “Log A” value is listed as 2.98.

On to `O/N=C/C1=CCCC1`, for which, in assay [1], the “Log A” value is recorded as 1.74. `C=COc1ccc([N+](=O)[O-])cc1N`: the “Log A” value in assay [1] came to 3.06. As for `COCC(OC)C1CC=C(/C=N/O)CC1` (centres undefined), the Log sweet/bitter result in assay [3] was “Not sweet”. The “Log A” value in assay [1] worked out at 0.9.

With `O/N=C/C1=CCCOC1`, the “Log A” value in assay [1] came out at 0.3. For `CC(C)(OCC(=O)O)C1CC=C(/C=N/O)CC1` (centres undefined) [listing 2 of 2 here], the Log sweet/bitter result in assay [3] was “Not sweet”. In the case of `COCC1=CC=C(/C=N/O)CC1`, the “Log A” value in assay [4] was “Not isolated”. As to `CCCc1ccc([N+](=O)[O-])cc1N`, the “Log A” value in assay [1] is 3.02. For `COCC1CCC=C1/C=N/O` (centres undefined), the “Log A” value in assay [1] amounted to 1.52. Further, the Log sweet/bitter in assay [2] is given as -0.12.

`CCOC1CC=C(/C=N/O)CC1` (centres undefined): the “Log A” value in assay [1] was found to be 1.2. This compound showed a Log sweet/bitter in assay [2] of 0.21. Take `CCCCOc1ccc([N+](=O)[O-])cc1N`: the “Log A” value in assay [1] was found to be 2.79. For the compound `C=CC1C=C(/C=N/O)CCC1` (centres undefined), the “Log A” value in assay [1] is recorded as 2.24. For the same compound, in assay [2], the Log sweet/bitter was -0.39.

As to `CC1CC=C(/C=N/O)C(C)O1` (centres undefined), the Log sweet/bitter result in assay [3] is “Not sweet”. For the same compound, the “Log A” value in assay [1] is reported as 1. Turning to `CC(C)Oc1ccc([N+](=O)[O-])cc1N`, the “Log A” value in assay [1] is listed as 2.54. For `CCOc1ccc([N+](=O)[O-])cc1N`, the “Log A” value in assay [1] came to 2.87. For the compound `C=CC1CC=C(/C=N/O)CC1` (centres undefined), the “Log A” value in assay [1] came out at 3.06. In assay [2], this compound returned a Log sweet/bitter of 0.7. Regarding `CO/N=C(/C)C1CC=C(/C=N/O)CC1` (centres undefined), the “Log A” value in assay [1] came to 1.9. With `COCCOCC1CC=C(/C=N/O)CC1` (centres undefined), the “Log A” value in assay [5] is on record as “Insoluble”. Consider `COC(C)C1=CC=C(/C=N/O)CC1` (centres undefined), for which, in assay [1], the “Log A” value was found to be 2.13. Moreover, the Log sweet/bitter in assay [2] is given as 0.97. The like results for `CC(C)C1=CCC(/C=N/O)=CC1` were, in that order, 2.51 and -0.07.

In the case of `CC(C)(OCC(=O)[O-])C1CC=C(/C=N/O)CC1.[Na+]` (centres undefined), the “Log A” value in assay [1] came to 1. On to `Nc1cc([N+](=O)[O-])ccc1F`, for which the “Log A” value in assay [1] is given as 1.26. The same measure, in the same setting: the result for `O/N=C/C1=CCCCC1` reads 1.74; that for `C/C=C(C)/C(C)=N/O`, 2.15. For the compound `COC(C)(CO)C1CC=C(/C=N/O)CC1` (centres undefined), the “Log A” value in assay [1] was 1.04. In assay [2], this compound showed a Log sweet/bitter of -1.4.

Turning to `N#Cc1ccc(Cl)c(N)c1`, the “Log A” value in assay [1] is 2.13.

Take `Nc1cc([N+](=O)[O-])ccc1Br`: the “Log A” value in assay [1] worked out at 2.71. Regarding `C/C=C(C)/C=N/O`, in assay [1], the “Log A” value is given as 1.6. Regarding `O/N=C/C1=CC=CCC1`, the “Log A” value in assay [1] is recorded as 1.95. With `O/N=C/C1=CC2C=CC1CC2` (centres undefined), the Log sweet/bitter result in assay [3] is “Not sweet”. The “Log A” value in assay [1] was found to be 2.51.

Take `O/N=C/C1=CCC=CC1`: in assay [1], the “Log A” value is 2.3. The same measure, in the same setting: the value for `N#Cc1ccc(Br)c(N)c1` was 2.46. Turning to `CC(C)(O)C1CC=C(/C=N/O)CC1` (centres undefined), the Log sweet/bitter in assay [6] is -0.66. Further, in assay [1], the “Log A” value is 0.9. In the case of `N#Cc1cccc(N)c1`, in assay [1], the “Log A” value is 0.94. `COC(C)C1CC=C(/C=N/O)CC1` (centres undefined): the “Log A” value in assay [1] is 1.9. In assay [2], this compound gave a Log sweet/bitter of 0.4. Take `CC(=O)C1CC=C(/C=N/O)CC1` (centres undefined): in assay [1], the “Log A” value is 1.08. In assay [2], this compound gave a Log sweet/bitter of 0.22. In the case of `O/N=C/C1=COCCC1`, the “Log A” value in assay [1] was determined as 0.48. Same read-out and setting: the result for `O/N=C/C1=CCOCC1` reads 0.18.

Consider `CC1(C2CC=C(/C=N/O)CC2)CO1` (centres undefined), for which the “Log A” value in assay [1] is recorded as 1.7. As to `COCC1=CCC=C(/C=N/O)C1`, in assay [3], the Log sweet/bitter entry was “Not sweet”. The “Log A” value in assay [1] came out at 2.15. With `COc1ccc(C#N)cc1N`, in assay [1], the “Log A” value stood at 1.89. Consider `CC(O)(CO)C1CC=C(/C=N/O)CC1` (centres undefined), for which the “Log A” value in assay [1] is on record as 1.48. Also, in assay [2], the Log sweet/bitter was -1.15. For `Nc1cccc([N+](=O)[O-])c1` [3-NITROANILINE], the “Log A” value in assay [1] is 1.21. Same read-out and setting: the value for `O/N=C/C1=CCSCC1` was 1.3. Take `CC1=CC=C(/C=N/O)CC1`: the “Log A” value in assay [1] is 2.18. In assay [2], this compound had a Log sweet/bitter of 0.23. Consider `COCC1CC=C(/C=N/O)C1` (centres undefined), for which, in assay [1], the “Log A” value was found to be 1.38. In addition, in assay [2], the Log sweet/bitter is listed as 0.64. As to `COCCCC/C=C(C)/C=N/O`, the “Log A” value in assay [1] is 1.23. With `COC(C)C1=CCC(/C=N/O)=CC1` (centres undefined), the “Log A” value in assay [1] is given as 2.48. This compound registered a Log sweet/bitter in assay [2] of 1.96. Taken in the same sequence, the figures for `COCC(C)(O)C1CC=C(/C=N/O)CC1` (centres undefined) were 0.6 and -1.05. Turning to `COCC1=CCC(/C=N/O)=CC1`, the “Log A” value in assay [1] worked out at 2.35. In assay [2], the Log sweet/bitter amounted to 1.65.

For the compound `CCOc1ccc(C#N)cc1N`, the “Log A” value in assay [1] was found to be 2.63. With `CC1CC=C(/C=N/O)CC1` (centres undefined), the “Log A” value in assay [1] came out at 2.4. In assay [2], the Log sweet/bitter was -0.1. Regarding `COCCC1CC=C(/C=N/O)CC1` (centres undefined), the “Log A” value in assay [7] was “Tasteless”.

In the case of `C/C(=N\O)C1=CCCCC1`, the Log sweet/bitter entry in assay [3] was “Not sweet”. Besides, the “Log A” value in assay [1] worked out at 2.61. As for `Cc1ccc([N+](=O)[O-])cc1N`, the “Log A” value in assay [1] is given as 2.17. For `COC1CC=C(/C=N/O)CC1` (centres undefined), the “Log A” value in assay [1] was 0.9. Moreover, in assay [2], the Log sweet/bitter was found to be 0.21.

As for `CCCOc1ccc(C#N)cc1N`, the “Log A” value in assay [1] came to 3.11.

With `COCC/C=C(C)/C=N/O`, the “Log A” value in assay [1] was found to be 0.6. Regarding `CCCOc1ccc([N+](=O)[O-])cc1N`, the “Log A” value in assay [1] came out at 3.46. With `COC(C)C1=CCC=C(/C=N/O)C1` (centres undefined), the Log sweet/bitter entry in assay [3] is “Not sweet”. In addition, the “Log A” value in assay [1] is recorded as 1.96. Take `Nc1cc([N+](=O)[O-])ccc1Cl`: the “Log A” value in assay [1] is recorded as 2.31.

Regarding `Nc1cc([N+](=O)[O-])ccc1O` [2-AMINO-4-NITROPHENOL], the “Log A” value in assay [1] is 1.96.

The values above are taken from ChEMBL document CHEMBL1121410, “Structure--taste relationship of perillartine and nitro- and cyanoaniline derivatives” (J Med Chem, 1980).
